Six compounds from patent US9834773B2, “Methods and means for metabolic engineering and improved product formation by micro-organisms” (Universiteit Leiden, priority 2006, dated 2017) can be followed below.

For the test, the target named is DasR (Streptomyces coelicolor, UniProt Q9K492). As to the kind of experiment: EMSA binding interference experiment: ability of compounds to interfere with binding of DasR to the nagB and crr promoters. The settings on record: for effect on formation of the complex of DasR with the nagB promoter (EMSA): 10 nM fluorescent probe, 3 μM purified DasR, 500-fold excess of non-specific DNA, 50, 100, 150, and 200 mM compound; for effect on formation of the complex of DasR with the crr promoter region (EMSA): data not shown. On the procedure:
FIG. 12. […] EMSAs were performed with 10 nM fluorescent probe, 3 μM purified DasR, and 500-fold excess of non-specific DNA.
EMSAs were performed with fluorescent probes (10 nM) with an ALF express sequencer (Filee et al., 2001). Purified DasR (3 μM) and 1000-fold excess of non-specific DNA were used in the reaction mixture. Predicted cis-acting elements were taken from the promoter regions of actII-ORF4 (SCO5085; 5′-[…]-3′ (SEQ ID NO:530)), and redZ (SCO5881; 5′-[…]-3′ (SEQ ID NO:531)). Known cis-acting elements upstream of crr (SCO1390; […]-3′ (SEQ ID NO:532)), and crp (SCO3571; 5′-[…]-3′ (SEQ ID NO:533)) were used as positive and negative controls, respectively. The 16 nt dre sites are underlined.
A pivotal question is what is the effector molecule that modulates DasR? As shown in here, many of the targets for DasR relate to the generation (chitinolytic system), transport (PTS^GlcNAc), and metabolism (glycolysis via fructose 6-P) of N-acetylglucosamine. We therefore looked for the inducer among the intermediate molecules that gravitate around aminosugar metabolism. A binding interference experiment was set up where the ability of compounds to interfere with binding of dasR to the nagB and crr promoters was tested. […] The finding that glucosamine-6-P serves as an effector of DasR is explained by its central position at the metabolic crossroads between (GlcNAc)n extracellular degradation, N-acetylglucosamine transport and intracellular metabolism, lipid and nitrogen metabolism, glycolysis, and peptidoglycan synthesis (FIG. 13).

DasR, sequence (Q9K492 whole entry): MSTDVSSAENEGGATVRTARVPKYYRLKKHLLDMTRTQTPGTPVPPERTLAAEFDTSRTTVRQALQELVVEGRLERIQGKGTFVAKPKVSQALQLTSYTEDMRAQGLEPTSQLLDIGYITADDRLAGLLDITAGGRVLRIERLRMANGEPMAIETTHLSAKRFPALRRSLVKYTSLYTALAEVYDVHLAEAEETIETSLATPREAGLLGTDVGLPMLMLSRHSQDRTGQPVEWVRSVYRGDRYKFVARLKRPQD

For `O=C(CO)[C@@H](O)[C@H](O)[C@H](O)COP(=O)(O)O` [fructose 6-P], the “effect on formation of the complex of DasR with the nagB promoter (EMSA)” value (from here on “effect … with the nagB promoter (EMSA)”) was “it was the only of the compounds tested that prevented the formation of a complex” and the “effect on formation of the complex of DasR with the crr promoter region (EMSA)” value (shortened to “effect … with the crr promoter region (EMSA)”) is recorded as “it was the only of the compounds tested that prevented the formation of a complex”.

As to `CC(=O)N[C@H]1C(O)O[C@H](COP(=O)(O)O)[C@@H](O)[C@@H]1O` (stereo partly shown) [N-acetylglucosamine-6-P], the “effect … with the nagB promoter (EMSA)” value was “it was the only of the compounds tested that prevented the formation of a complex” and the “effect … with the crr promoter region (EMSA)” value is “it was the only of the compounds tested that prevented the formation of a complex”.

Consider `N[C@@H](CCC(=O)O)C(=O)O` [glutamate], for which the “effect … with the nagB promoter (EMSA)” value is “it was the only of the compounds tested that prevented the formation of a complex” and the “effect … with the crr promoter region (EMSA)” value is recorded as “it was the only of the compounds tested that prevented the formation of a complex”.

In the case of `NC(=O)CC[C@H](N)C(=O)O` [glutamine], the “effect … with the nagB promoter (EMSA)” value was “it was the only of the compounds tested that prevented the formation of a complex” and the “effect … with the crr promoter region (EMSA)” value is on record as “it was the only of the compounds tested that prevented the formation of a complex”.

Consider `N[C@H]1C(O)O[C@H](COP(=O)(O)O)[C@@H](O)[C@@H]1O` (stereo partly shown) [glucosamine-6-P, glucosamine-6-phosphate], for which the “effect … with the nagB promoter (EMSA)” value is “prevented the formation of a complex” and the “effect … with the crr promoter region (EMSA)” value was “prevented the formation of a complex”. Further, the “effect … with the nagB promoter (EMSA)” value (listed as GlcN-6-P) is reported as “release of DasR from the dre site”.

Take `CC(=O)SCCNC(=O)CCNC(=O)[C@H](O)C(C)(C)COP(=O)(O)OP(=O)(O)OC[C@H]1O[C@@H](n2cnc3c(N)ncnc32)[C@H](O)[C@@H]1OP(=O)(O)O` [acetyl-CoA]: the “effect … with the nagB promoter (EMSA)” value is on record as “it was the only of the compounds tested that prevented the formation of a complex” and the “effect … with the crr promoter region (EMSA)” value is “it was the only of the compounds tested that prevented the formation of a complex”.
